In paper PMC11357054, “Azobenzenesulfonamide Carbonic Anhydrase Inhibitors as New Weapons to Fight Helicobacter pylori: Synthesis, Bioactivity Evaluation, In Vivo Toxicity, and Computational Studies” (Pharmaceuticals, 2024) one finds Ki, MBC and MIC data, which are given here for seven molecules.

≈ marks a conversion by molar mass, not a printed value. Read-outs that look alike come from different tables or passages of the source.

One assay concerns the target T1, PgiγCA.
T1 construct: gene PgiCA; recombinant, obtained in-house
Nature of the assay: stopped-flow CO2 hydration. It counts as biochemical, Porphyromonas gingivalis. The note with it: pH […] HEPES, […] Na2SO4, […] min preincubation, r.t.; read-out: KI (nM) * / Bacterial Isoforms / Pgi γCA.

For the next assay, the target named is T2, HpαCA (Helicobacter pylori, UniProt B5Z8I0).
T2 construct: gene HPG27_1129; recombinant, obtained in-house; PDB 4XFW is given for docking only
T2 sequence (B5Z8I0 22-247): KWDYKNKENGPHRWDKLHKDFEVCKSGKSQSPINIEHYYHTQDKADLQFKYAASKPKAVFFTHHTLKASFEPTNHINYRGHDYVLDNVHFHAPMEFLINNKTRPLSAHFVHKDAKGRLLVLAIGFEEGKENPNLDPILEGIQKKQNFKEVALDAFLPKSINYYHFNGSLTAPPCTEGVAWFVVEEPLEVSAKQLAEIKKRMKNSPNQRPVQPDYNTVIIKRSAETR
Nature of the assay: stopped-flow CO2 hydration. It counts as biochemical.

Assay [1] deals with T3, hCA XII (Homo sapiens, UniProt O43570).
T3 construct: gene CA12
Nature of the assay: stopped-flow CO2 hydration. In kind it is biochemical. The conditions noted are these: read-out: KI (nM) * / Human Isoforms / hCA XII. From the text: stopped-flow CO2 hydration on hCA XII

The target of assay [2] is T4, EcoβCA (Escherichia coli, UniProt P61517).
T4 construct: gene can; recombinant, obtained in-house
Nature of the assay: stopped-flow CO2 hydration. In kind it is biochemical. The conditions noted are these: read-out: KI (nM) * / Bacterial Isoforms / Eco βCA.

Another assay concerns the target T5, hCA II (Homo sapiens, UniProt P00918).
T5 construct: gene CA2; purchased from Merck
Nature of the assay: stopped-flow CO2 hydration. In kind it is biochemical. The note with it: read-out: KI (nM) * / Human Isoforms / hCA II. From the text: stopped-flow CO2 hydration on hCA II

For a further assay, the target named is T6, PgiβCA.
T6 construct: gene PgiCAb; recombinant, obtained in-house
Nature of the assay: stopped-flow CO2 hydration. In kind it is biochemical, Porphyromonas gingivalis. The conditions noted are these: pH […] HEPES, […] Na2SO4, […] min preincubation, r.t.; read-out: KI (nM) * / Bacterial Isoforms / Pgi βCA.

The next assay has as its system T7, H. pylori ATCC 43504.
T7 construct: ATCC 43504
Nature of the assay: microbe, parasite or virus in culture. The arrangement: species or system Helicobacter pylori ATCC 43504; MIC by broth microdilution, alamarBlue and CFU count; MBC by CFU count. The conditions noted are these: Helicobacter pylori, ATCC43504. Here is the method:
H. pylori ATCC 43504 was cultured on a Columbia Agar base (Becton Dickinson and Company, Franklin Lakes, NJ, USA) supplemented with 10% horse serum (Merck, St. Louis, MO, USA) and 0.25% yeast extract (Oxoid Ltd., Hampshire, UK), incubated at 37 °C for 72 h in a microaerophilic atmosphere (CampyGen, Thermo Fisher Scientific, Milan, Italy). Colonies were collected and transferred into 10 mL of Brain Heart Infusion broth (BHI, Oxoid Ltd., Hampshire, UK) supplemented with 5% (v/v) of fetal bovine serum (FBS, Merck, Milan, Italy) and incubated overnight at 37 °C, at 125 rpm under microaerophilic conditions. After 18 h of incubation, the broth culture was diluted to obtain a bacterial suspension of 10^6 CFU/mL. MICs were determined by three different assays: the broth micro-dilution method, the alamarBlue assay, and the CFU count. […] This bacterium was selected based on the inhibitory potency evidenced by the two series of azobenzenesulfonamides against the HpCAs.

In assay [3] the target is T8, hCA IX (Homo sapiens, UniProt Q16790).
T8 construct: gene CA9
Nature of the assay: stopped-flow CO2 hydration. In kind it is biochemical. The note with it: read-out: KI (nM) * / Human Isoforms / hCA IX. An excerpt:
stopped-flow CO2 hydration on hCA IX

Assay [4] addresses T9, hCA I (Homo sapiens, UniProt P00915).
T9 construct: gene CA1; purchased from Merck
Nature of the assay: stopped-flow CO2 hydration. It counts as biochemical. The conditions noted are these: read-out: KI (nM) * / Human Isoforms / hCA I. From the text: stopped-flow CO2 hydration on hCA I

For the next assay, the target named is T10, HpβCA (Helicobacter pylori, UniProt Q9ZN54).
T10 construct: gene cynT; recombinant, obtained in-house
T10 sequence (Q9ZN54 1-221): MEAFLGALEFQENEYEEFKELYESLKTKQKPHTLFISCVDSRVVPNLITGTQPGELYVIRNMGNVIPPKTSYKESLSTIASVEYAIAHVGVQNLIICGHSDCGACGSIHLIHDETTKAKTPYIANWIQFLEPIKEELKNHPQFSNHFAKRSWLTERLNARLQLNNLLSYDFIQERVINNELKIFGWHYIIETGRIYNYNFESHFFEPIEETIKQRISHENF
Nature of the assay: stopped-flow CO2 hydration. It counts as biochemical. The conditions noted are these: read-out: KI (nM) * / Bacterial Isoforms / Hp βCA.

Assay [5] deals with T11, PsCA3 (Pseudomonas aeruginosa, UniProt Q9HVB9).
T11 construct: gene PA4676; recombinant, obtained in-house
T11 sequence (Q9HVB9 1-215): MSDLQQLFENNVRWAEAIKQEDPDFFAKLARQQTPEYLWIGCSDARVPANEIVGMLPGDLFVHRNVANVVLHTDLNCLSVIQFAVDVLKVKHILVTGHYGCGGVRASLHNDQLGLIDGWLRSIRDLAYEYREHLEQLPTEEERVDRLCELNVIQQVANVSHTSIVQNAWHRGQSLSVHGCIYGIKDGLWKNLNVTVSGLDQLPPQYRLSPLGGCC
Nature of the assay: stopped-flow CO2 hydration. It counts as biochemical. The conditions noted are these: read-out: KI (nM) * / Bacterial Isoforms / Ps CA3.

The target of assay [6] is T9, hCA I. Nature of the assay: biochemical. The conditions noted are these: read-out: Human Isoforms / hCA I. The method, then: (§1) An Applied Photophysics stopped-flow instrument was used to evaluate the ability of the test compounds to inhibit CA-catalyzed CO2 hydration. […] The CO2 concentrations ranged from 1.7 to 17 mM for the determination of the kinetic parameters and inhibition constants. Enzyme concentrations spanned from 5 to 12 nM. Stock solutions of the inhibitor (0.1 mM) were prepared in distilled–deionized water, and dilutions up to 0.01 nM were prepared with the assay buffer. Inhibitor and enzyme solutions were preincubated for 15 min at r.t. for the formation of the E–I complex. The inhibition constants were obtained by non-linear least-squares methods using PRISM 3 and the Cheng–Prusoff equation and represent the mean from at least three different determinations. Apart from human CAs I and II purchased from Merck, all the bacterial CAs were recombinant and obtained in-house. Compounds 4a–j and 5a–j were tested on a large panel of human and bacterial isoenzymes belonging to different CA families, evaluating their inhibitory activity through the CO2 hydration activity assay by means of the stopped-flow technique, and the inhibitory constants (KIs) are reported in Table 1 and Table 2, respectively. In particular, we tested the hypoxic tumor-associated hCAs IX and XII, and bacterial isoforms involved in several infectious diseases, such as those caused by H. pylori (HpαCA and HpβCA), Porphyromonas gingivalis (PgiβCA and PgiγCA), Escherichia coli (EcoβCA), Pseudomonas aeruginosa (PsCA3, belonging to the β-class), Mammaliicoccus (Staphylococcus) sciuri (MscCA, belonging to the β-class), and Streptococcus mutans (SmuCA, belonging to the β-class). The inhibition of human physiologically relevant isoforms I and II was also investigated in order to assess the compounds’ selectivity. Our main aim was to rationalize the structural requirements of sulfonamide-containing compounds useful for targeting HpCAs, in order to gain a larger knowledge for further optimization studies focusing on isoform selectivity. In fact, although the tested human and bacterial isoforms present a low degree of sequence similarity, they catalyze the same reaction and contain the catalytically active zinc ion in the active site. Thus, a comparison of the data obtained from different members of this large superfamily has a high relevance in the field. By observing Table 1 and Table 2, interesting structure–activity relationship (SAR) considerations can be inferred.

Assay [7] concerns the target T11, PsCA3. Nature of the assay: biochemical. The conditions noted are these: read-out: Bacterial Isoforms / Ps CA3. The method, then: as §1
The target of assay [8] is T8, hCA IX. Nature of the assay: biochemical. The note with it: read-out: Human Isoforms / hCA IX. Here is the method: as §1
The target of assay [9] is T4, EcoβCA. Nature of the assay: biochemical. The note with it: read-out: Bacterial Isoforms / Eco βCA. The method, then: as §1
Assay [10] has as its target T3, hCA XII. Nature of the assay: biochemical. The conditions noted are these: read-out: Human Isoforms / hCA XII. The method, then:
as §1

[11] abbreviates: read-out: KI (nM) * / Bacterial Isoforms / Hp αCA.

T4 sequence (P61517 whole entry): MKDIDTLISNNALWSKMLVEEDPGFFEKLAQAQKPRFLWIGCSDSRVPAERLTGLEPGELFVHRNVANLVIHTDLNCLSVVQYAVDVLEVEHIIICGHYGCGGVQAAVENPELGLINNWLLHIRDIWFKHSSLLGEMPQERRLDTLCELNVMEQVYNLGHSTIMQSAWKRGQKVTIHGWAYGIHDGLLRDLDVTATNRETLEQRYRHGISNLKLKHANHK
T3 sequence (O43570 30-289 limits assumed): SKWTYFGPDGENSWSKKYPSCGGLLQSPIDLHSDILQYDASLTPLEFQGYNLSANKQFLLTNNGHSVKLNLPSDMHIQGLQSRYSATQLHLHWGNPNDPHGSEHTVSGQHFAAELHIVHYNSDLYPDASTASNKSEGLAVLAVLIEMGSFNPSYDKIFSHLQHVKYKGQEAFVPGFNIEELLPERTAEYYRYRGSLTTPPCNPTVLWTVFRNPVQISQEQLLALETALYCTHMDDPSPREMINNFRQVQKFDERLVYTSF
T9 sequence (P00915 2-261): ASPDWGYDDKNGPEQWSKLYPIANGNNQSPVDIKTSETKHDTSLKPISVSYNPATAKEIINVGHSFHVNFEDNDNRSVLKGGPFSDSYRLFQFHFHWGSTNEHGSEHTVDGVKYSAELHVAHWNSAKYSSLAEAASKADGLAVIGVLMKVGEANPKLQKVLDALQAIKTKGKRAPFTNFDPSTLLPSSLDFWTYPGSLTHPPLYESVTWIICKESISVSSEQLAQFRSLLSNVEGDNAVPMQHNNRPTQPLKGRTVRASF

`COc1ccc(O)c(/N=N/c2ccc(S(N)(=O)=O)cc2)c1` [4a, (E)-4-((2-hydroxy-5-methoxyphenyl)diazenyl)benzenesulfonamide]: the Ki came to 3440 nM at PgiγCA; 65.8 nM at HpαCA (setting [11]); 9.5 nM on hCA XII [1]; 400 nM at EcoβCA [2]; 24.1 nM on hCA II; 803 nM at PgiβCA. For the same molecule, the Ki at hCA IX [3] turned out to be 201 nM; at hCA I [4], 45 nM; at HpβCA it was 74.1 nM; at PsCA3 [5], 228 nM. Also, the MBC against H. pylori ATCC 43504 was 32 µg/mL (≈ 104 µM). Further, the MIC against H. pylori ATCC 43504 came out at 8 µg/mL (≈ 26 µM).
As for `COc1cc(/N=N/c2ccc(S(N)(=O)=O)cc2)ccc1O` [4b, (E)-4-((4-hydroxy-3-methoxyphenyl)diazenyl)benzenesulfonamide], the Ki at PgiγCA was determined as 837 nM; on HpαCA (setting [11]) it was 120 nM; on hCA XII [1] it was 21.8 nM; at EcoβCA [2], 95.8 nM; on hCA II, 3.3 nM; at PgiβCA it was 1920 nM. The Ki on hCA IX [3] was 831 nM; on hCA I [4], 34.8 nM; at HpβCA it was 49.7 nM; at PsCA3 [5] it was 702 nM. The molecule also gave an MBC against H. pylori ATCC 43504 of 32 µg/mL (≈ 104 µM). The same molecule came in with an MIC against H. pylori ATCC 43504 of 32 µg/mL (≈ 104 µM).
Turning to `COc1cc(O)ccc1/N=N/c1ccc(S(N)(=O)=O)cc1` [4c, (E)-4-((4-hydroxy-2-methoxyphenyl)diazenyl)benzenesulfonamide], the Ki at PgiγCA is 2000 nM; on HpαCA (setting [11]), 70.9 nM; at hCA XII [1], 34.7 nM; on EcoβCA [2], 96.3 nM; at hCA II it was 5.4 nM; at PgiβCA, 3630 nM. Moreover, the Ki at hCA IX [3] came out at 545 nM; at hCA I [4], 84.9 nM; on HpβCA it was 17.1 nM; on PsCA3 [5], 221 nM. Besides, in the assay on H. pylori ATCC 43504, the MBC amounted to 16 µg/mL (≈ 52.1 µM). The molecule further displayed an MIC in the assay on H. pylori ATCC 43504 of 8 µg/mL (≈ 26 µM).
With `NS(=O)(=O)c1ccc(/N=N/c2ccc(O)c(C(F)(F)F)c2)cc1` [4d, (E)-4-((4-hydroxy-3-(trifluoromethyl)phenyl)diazenyl)benzenesulfonamide], the Ki at PgiγCA was 94.7 nM; on HpαCA (setting [11]) it was 39 nM; on hCA XII [1], 40.2 nM; at EcoβCA [2], 738 nM; at hCA II it was 4.8 nM; at PgiβCA, 3170 nM. Moreover, the Ki came out at 182 nM at hCA IX [3], 20.1 nM at hCA I [4], 19.4 nM on HpβCA and 222 nM on PsCA3 [5]. Moreover, the MBC in the assay on H. pylori ATCC 43504 came to 128 µg/mL (≈ 371 µM). Further, the MIC in the assay with H. pylori ATCC 43504 turned out to be 64 µg/mL (≈ 185 µM).
Turning to `NS(=O)(=O)c1ccc(/N=N/c2ccc(O)cc2C(F)(F)F)cc1` [4e, (E)-4-((4-hydroxy-2-(trifluoromethyl)phenyl)diazenyl)benzenesulfonamide], the Ki is 347 nM at PgiγCA; 89.2 nM on HpαCA (setting [11]); 54.1 nM on hCA XII [1]; 95.3 nM on EcoβCA [2]; 4.2 nM at hCA II; 899 nM on PgiβCA. Also, the Ki amounted to 191 nM at hCA IX [3], 5.4 nM at hCA I [4], 68.8 nM at HpβCA and 495 nM at PsCA3 [5]. The MBC with H. pylori ATCC 43504 came out at 16 µg/mL (≈ 46.3 µM). The molecule also registered an MIC with H. pylori ATCC 43504 of 8 µg/mL (≈ 23.2 µM).
Regarding `CS(=O)(=O)Nc1ccc(N=Nc2ccccc2)cc1` [5i], the Ki amounted to 89.8 nM on HpαCA (read-out: KI (nM) / Bacterial Isoforms / Hp αCA); 5990 nM at hCA I [6]; 9280 nM on PsCA3 [7]; 599 nM on hCA IX [8]; 6950 nM on EcoβCA [9]; 2240 nM on hCA XII [10]. In the assay on H. pylori ATCC 43504, this molecule gave an MBC of 32 µg/mL (≈ 116 µM). Moreover, the MIC in the assay with H. pylori ATCC 43504 turned out to be 16 µg/mL (≈ 58.1 µM).
For `CC1(C)S[C@@H]2[C@H](NC(=O)[C@H](N)c3ccc(O)cc3)C(=O)N2[C@H]1C(=O)O` [Amoxicillin], in the assay on H. pylori ATCC 43504, the MBC is 0.064 µg/mL (≈ 0.175 µM) and the MIC was 0.064 µg/mL (≈ 0.175 µM).
